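A five-concentration, 48-hour dose response in 96-well plates underlies each endpoint, interpolated linearly between surrounding concentrations. GI50: concentration for 50% inhibition of growth. TGI denotes the concentration required for complete inhibition of growth.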
Key:
Assay in all cases: NCI anticancer screen, dose series, 48 h
HT29 colon = tested on: HT29 colon
EKVX NSCLC = tested on: EKVX NSCLC
CCRF-CEM leukemia = tested on: CCRF-CEM leukemia
HOP-92 NSCLC = tested on: HOP-92 NSCLC
M14 melanoma = tested on: M14 melanoma
SK-MEL-28 melanoma = tested on: SK-MEL-28 melanoma
HCT-15 colon = tested on: HCT-15 colon
T-47D breast = tested on: T-47D breast
U251 CNS = tested on: U251 CNS
CAKI-1 renal = tested on: CAKI-1 renal
HS 578T breast = tested on: HS 578T breast
A549 NSCLC = tested on: A549 NSCLC
IGROV1 ovarian = tested on: IGROV1 ovarian
NCI-H23 lung = tested on: NCI-H23 lung
NCI-H522 lung = tested on: NCI-H522 lung
MDA-N = tested on: MDA-N
OVCAR-4 ovarian = tested on: OVCAR-4 ovarian
SW-620 colon = tested on: SW-620 colon
SNB-19 CNS = tested on: SNB-19 CNS
MDA-MB-231 breast = tested on: MDA-MB-231 breast
PC-3 prostate = tested on: PC-3 prostate
SN12C renal = tested on: SN12C renal
COLO 205 colon = tested on: COLO 205 colon
SNB-75 CNS = tested on: SNB-75 CNS
MALME-3M melanoma = tested on: MALME-3M melanoma
RXF 393 renal = tested on: RXF 393 renal
OVCAR-8 ovarian = tested on: OVCAR-8 ovarian
NCI-H226 lung = tested on: NCI-H226 lung
NCI-H460 lung = tested on: NCI-H460 lung
HL-60(TB) leukemia = tested on: HL-60(TB) leukemia
RPMI-8226 leukemia = tested on: RPMI-8226 leukemia
SK-MEL-2 melanoma = tested on: SK-MEL-2 melanoma
SF-268 CNS = tested on: SF-268 CNS
ACHN renal = tested on: ACHN renal
UACC-62 melanoma = tested on: UACC-62 melanoma
SF-295 CNS = tested on: SF-295 CNS
SK-MEL-5 melanoma = tested on: SK-MEL-5 melanoma
HOP-62 NSCLC = tested on: HOP-62 NSCLC
UACC-257 melanoma = tested on: UACC-257 melanoma
DU-145 prostate = tested on: DU-145 prostate
TK-10 renal = tested on: TK-10 renal
MOLT-4 leukemia = tested on: MOLT-4 leukemia
SR leukemia = tested on: SR leukemia
MDA-MB-435 = tested on: MDA-MB-435
LOX IMVI melanoma = tested on: LOX IMVI melanoma
BT-549 breast = tested on: BT-549 breast
K-562 leukemia = tested on: K-562 leukemia
HCC-2998 colon = tested on: HCC-2998 colon
SK-OV-3 ovarian = tested on: SK-OV-3 ovarian
SF-539 CNS = tested on: SF-539 CNS
KM12 colon = tested on: KM12 colon
HCT-116 colon = tested on: HCT-116 colon
MCF7 breast = tested on: MCF7 breast
A498 renal = tested on: A498 renal
OVCAR-3 ovarian = tested on: OVCAR-3 ovarian
OVCAR-5 ovarian = tested on: OVCAR-5 ovarian
786-0 renal = tested on: 786-0 renal

For `CC(=O)OCc1cnc2c3c(nc4ccccc4c13)C(=O)c1cccnc1-2`, the GI50 (HT29 colon) was 193 nM, the TGI (HT29 colon) was 634 nM and the GI50 (EKVX NSCLC) was 187 nM. It also gave a TGI (EKVX NSCLC) of 2600 nM, a GI50 (CCRF-CEM leukemia) of 25.1 nM and a GI50 (HOP-92 NSCLC) of 104 nM. It also gave a TGI (HOP-92 NSCLC) of 2770 nM, a GI50 (M14 melanoma) of 25.5 nM and a TGI (M14 melanoma) of 125 nM. For the same compound, the GI50 (SK-MEL-28 melanoma) was 174 nM, the TGI (SK-MEL-28 melanoma) was 614 nM and the GI50 (HCT-15 colon) was < 10 nM. It also gave a TGI (HCT-15 colon) of 127 nM, a GI50 (T-47D breast) of 827 nM and a TGI (T-47D breast) of 10500 nM. The GI50 (U251 CNS) was 23.7 nM, the GI50 (CAKI-1 renal) was < 10 nM and the TGI (CAKI-1 renal) was 150 nM. The GI50 (HS 578T breast) was 271 nM, the TGI (HS 578T breast) was 1330 nM and the GI50 (A549 NSCLC) was 58.6 nM. For the same compound, the TGI (A549 NSCLC) was 14900 nM, the GI50 (IGROV1 ovarian) was 124 nM and the TGI (IGROV1 ovarian) was 1890 nM. For the same compound, the GI50 (NCI-H23 lung) was 118 nM, the TGI (NCI-H23 lung) was 612 nM and the GI50 (NCI-H522 lung) was 43.4 nM. The TGI (NCI-H522 lung) was 330 nM, the GI50 (MDA-N) was 110 nM and the TGI (MDA-N) was 366 nM. The GI50 (OVCAR-4 ovarian) was 32.9 nM, the TGI (OVCAR-4 ovarian) was 390 nM and the GI50 (SW-620 colon) was < 11.3 nM. For the same compound, the TGI (SW-620 colon) was 500 nM, the GI50 (SNB-19 CNS) was 42.4 nM and the TGI (SNB-19 CNS) was 959 nM. It also gave a GI50 (MDA-MB-231 breast) of 131 nM, a TGI (MDA-MB-231 breast) of 647 nM and a GI50 (PC-3 prostate) of 133 nM. The TGI (PC-3 prostate) was 2420 nM, the GI50 (SN12C renal) was 22.1 nM and the TGI (SN12C renal) was 318 nM. It also gave a GI50 (COLO 205 colon) of 321 nM, a TGI (COLO 205 colon) of 1010 nM and a GI50 (SNB-75 CNS) of 68.3 nM. For the same compound, the TGI (SNB-75 CNS) was 414 nM, the GI50 (MALME-3M melanoma) was 22 nM and the TGI (MALME-3M melanoma) was 205 nM. For the same compound, the GI50 (RXF 393 renal) was < 34.3 nM, the TGI (RXF 393 renal) was 841 nM and the GI50 (OVCAR-8 ovarian) was 11.5 nM. The TGI (OVCAR-8 ovarian) was 109 nM, the GI50 (NCI-H226 lung) was < 15 nM and the TGI (NCI-H226 lung) was 121 nM. The GI50 (NCI-H460 lung) was 18.6 nM, the TGI (NCI-H460 lung) was 147 nM and the GI50 (HL-60(TB) leukemia) was 20.6 nM. The GI50 (RPMI-8226 leukemia) was 168 nM, the TGI (RPMI-8226 leukemia) was 983 nM and the GI50 (SK-MEL-2 melanoma) was 482 nM. The TGI (SK-MEL-2 melanoma) was 1960 nM, the GI50 (SF-268 CNS) was 34.1 nM and the TGI (SF-268 CNS) was 1010 nM. The GI50 (ACHN renal) was < 10 nM, the GI50 (UACC-62 melanoma) was 135 nM and the TGI (UACC-62 melanoma) was 403 nM. It also gave a GI50 (SF-295 CNS) of 172 nM, a TGI (SF-295 CNS) of 751 nM and a GI50 (SK-MEL-5 melanoma) of 37.3 nM. The TGI (SK-MEL-5 melanoma) was 106 nM, the GI50 (HOP-62 NSCLC) was 27 nM and the TGI (HOP-62 NSCLC) was 163 nM. For the same compound, the GI50 (UACC-257 melanoma) was 253 nM, the TGI (UACC-257 melanoma) was 849 nM and the GI50 (DU-145 prostate) was < 18.7 nM. The TGI (DU-145 prostate) was 147 nM, the GI50 (TK-10 renal) was 57.3 nM and the TGI (TK-10 renal) was 420 nM. For the same compound, the GI50 (MOLT-4 leukemia) was 290 nM, the TGI (MOLT-4 leukemia) was > 20500 nM and the GI50 (SR leukemia) was < 10 nM. The TGI (SR leukemia) was > 100000 nM, the GI50 (MDA-MB-435) was 120 nM and the TGI (MDA-MB-435) was 527 nM. For the same compound, the GI50 (LOX IMVI melanoma) was < 10 nM, the TGI (LOX IMVI melanoma) was 51.7 nM and the GI50 (BT-549 breast) was 150 nM. It also gave a TGI (BT-549 breast) of 1760 nM, a GI50 (K-562 leukemia) of 47.8 nM and a GI50 (HCC-2998 colon) of 102 nM. The TGI (HCC-2998 colon) was 535 nM, the GI50 (SK-OV-3 ovarian) was 50 nM and the TGI (SK-OV-3 ovarian) was 874 nM. The GI50 (SF-539 CNS) was < 13.1 nM, the TGI (SF-539 CNS) was 82 nM and the GI50 (KM12 colon) was 167 nM. The TGI (KM12 colon) was 504 nM, the GI50 (HCT-116 colon) was < 10 nM and the TGI (HCT-116 colon) was 27 nM. The GI50 (MCF7 breast) was < 11.8 nM, the TGI (MCF7 breast) was 90.4 nM and the GI50 (A498 renal) was 162 nM. It also gave a TGI (A498 renal) of 790 nM, a GI50 (OVCAR-3 ovarian) of 30 nM and a GI50 (OVCAR-5 ovarian) of 435 nM. For the same compound, the TGI (OVCAR-5 ovarian) was 2230 nM, the GI50 (786-0 renal) was < 10 nM and the TGI (786-0 renal) was 30.5 nM.

— PubChem BioAssay (NCI)
